Measurements: publication PMC3783749 (Indian Journal of Pharmaceutical Sciences, 2013)
Converted amounts (≈) assume the structure as drawn.

Columns and labels:
[1] = tested on: Candida tropicalis (ATCC 1369); assay: Antifungal MIC by broth dilution; assay type: cell-based; conditions: read-out: MIC values, Ct
[2] = tested on: Klebsiella pneumoniae ATCC 10031; assay: MIC by broth microdilution method; assay type: cell-based; conditions: Gram-negative; 37°, 18 h

| MIC [1] [µg/mL] | MIC values, Kp [2] [µg/mL] | Compound |
| --- | --- | --- |
| 31.2 (≈ 87 µM) | – | Cc1ccc(C)n1-c1ccc(-c2nnc(-c3cccc([N+](=O)[O-])c3)[nH]2)cc1 [Compound 4e, 3-(4-(2,5-Dimethyl-1H-pyrrol-1-yl)phenyl)-5-(3-nitrophenyl)-4H-1,2,4-triazole] |
| 31.2 (≈ 87 µM) | – | Cc1ccc(C)n1-c1ccc(-c2nnc(-c3ccccc3[N+](=O)[O-])[nH]2)cc1 [Compound 4f, 3-(4-(2,5-Dimethyl-1H-pyrrol-1-yl)phenyl)-5-(2-nitrophenyl)-4H-1,2,4-triazole] |
| 31.2 (≈ 94.6 µM) | – | Cc1ccc(C)n1-c1ccc(-c2nnc(-c3ccc(O)cc3)[nH]2)cc1 [Compound 4g, 4-(5-(4-(2,5-Dimethyl-1H-pyrrol-1-yl)phenyl)-4H-1,2,4-triazol-3-yl) phenol] |
| – | 31.25 (≈ 121 µM) | Cc1ccc(C)n1-c1ccc(C(=O)NNC=O)cc1 [Compound 5, 4-(2,5-dimethyl-1H-pyrrol-1-yl)-N’-formylbenzohydrazide] |
